These results are taken from patent publication US9850283B2, “Macrocyclic inhibitors of the PD-1/PD-L1 and CD80(B7-1)/PD-L1 protein/protein interactions” (BRISTOL-MYERS SQUIBB COMPANY, priority 2013, dated 2017).

In assay [1] the target is T1, LK35.2-hPD-L1 cells / PE-labeled PD-1-Ig (Homo sapiens, UniProt Q9NZQ7).
T1 construct: expressed in transfected cells; host or cells: LK35.2 mouse B cell line
Nature of the assay: LK35.2-hPD-L1 cell binding high-content screening assay. The class given is cell-based. The procedure:
LK35.2-hPD-L1 Cell Binding High-Content Screening Assay. Phycoerythrin (PE) was covalently linked to the Ig epitope tag of human PD-1-Ig and fluorescently-labeled PD-1-Ig was used for binding studies with a mouse B cell line (LK35.2) stably over-expressing human PD-L1 (LK35.2-hPD-L1). Briefly, 3×10^3 LK35.2-hPD-L1 cells were seeded into 384 well plates in 20 ul of RPMI supplemented with 10% fetal calf serum and cultured overnight. 125 nl of compound was added to cells, followed by 5 ul of PE-labeled PD-1-Ig (1 nM final), diluted in RPMI supplemented with 10% fetal calf serum, followed by incubation at 37° C. for 1 h. […] Cells were washed 3× in 100 ul of dPBS followed by final addition of 15 ul of dPBS. Data was collected and processed using a Cell Insight NXT High Content Imager and associated software.

A further assay addresses T2, Human PD-L1/PD-1 (Homo sapiens, UniProt Q9NZQ7).
T2 construct: made in house; host or cells: HEK293T
Nature of the assay: HTRF PD-1-Ig/PD-L1-His binding assay (human PD-L1). In a few lines:
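Ig- and His-fused extracellular PD-1/PD-L1 binding in BSA/Tween-20 dPBS. HTRF with Eu anti-Ig (1 nM final) and APC anti-His (20 nM final).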

The mark [2] stands for this setting: cell binding assay, cell line not given, cluster symbol, read-out: CBA IC50 cluster.
Setting [3] is: cluster symbol, read-out: HTRF IC50 cluster.
Where [4] appears, read: cluster symbol, cell line of CBA not given (LK35.2-hPD-L1 or 293T-hPD-L1), read-out: CBA IC50 cluster.

Broadly, the IC50 is the concentration that gives 50% inhibition.

Like-named read-outs stand apart in the source and are kept apart here. Positions of bridges follow the written chain, without caps; N, C: chain ends. Non-standard residues stand in square brackets, D forms with d. Residues, ends and D or L forms follow the SMILES beside them. ξ: configuration not given here. Pro(cis-4-Ph) = O=C(O)[C@@H]1C[C@H](c2ccccc2)CN1; 1Nal = N[C@@H](Cc1cccc2ccccc12)C(=O)O; Hyp = O=C(O)[C@@H]1C[C@@H](O)CN1; NMeF = CN[C@@H](Cc1ccccc1)C(=O)O; hPhe = N[C@@H](CCc1ccccc1)C(=O)O; dHyp = O=C(O)[C@H]1C[C@H](O)CN1; NMeNle = CCCC[C@H](NC)C(=O)O; NMeM = CN[C@@H](CCSC)C(=O)O; NMeA = CN[C@@H](C)C(=O)O; Orn = NCCC[C@H](N)C(=O)O; Dap = NC[C@H](N)C(=O)O; ξC = NC(CS)C(=O)O; Sar = CNCC(=O)O Some results are limits rather than exact numbers.

T1 sequence (Q9NZQ7 19-290): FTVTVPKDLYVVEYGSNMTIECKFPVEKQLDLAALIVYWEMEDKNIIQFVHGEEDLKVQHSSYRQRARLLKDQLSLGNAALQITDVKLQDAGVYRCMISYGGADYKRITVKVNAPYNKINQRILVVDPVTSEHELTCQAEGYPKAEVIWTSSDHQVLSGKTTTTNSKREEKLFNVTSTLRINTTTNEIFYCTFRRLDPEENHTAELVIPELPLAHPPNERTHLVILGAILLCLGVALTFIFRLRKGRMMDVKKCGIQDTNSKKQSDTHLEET
T2 sequence (Q9NZQ7 with tags, fused parts or gaps): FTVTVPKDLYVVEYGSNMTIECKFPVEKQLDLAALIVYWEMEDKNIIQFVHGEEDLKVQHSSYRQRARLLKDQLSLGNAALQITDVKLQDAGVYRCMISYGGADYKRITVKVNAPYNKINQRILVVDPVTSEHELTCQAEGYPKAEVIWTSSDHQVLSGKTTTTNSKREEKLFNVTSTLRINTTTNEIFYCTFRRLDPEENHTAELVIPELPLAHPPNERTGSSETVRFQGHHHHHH

In the case of `CCCC[C@H]1C(=O)N(C)CC(=O)N[C@@H](CC(=O)O)C(=O)N[C@@H](C(C)C)C(=O)N(C)[C@@H](Cc2ccccc2)C(=O)N[C@@H](Cc2ccc(O)cc2)C(=O)N(C)CC(=O)N[C@@H](Cc2c[nH]c3ccccc23)C(=O)N[C@@H](Cc2ccc(O)cc2)C(=O)N[C@@H](CC(C)C)C(=O)N[C@H](C(=O)NCC(N)=O)CSCC(=O)N[C@@H](Cc2ccccc2)C(=O)N(C)[C@@H](Cc2cccc3ccccc23)C(=O)N1C` (single isomer, unassigned) [Example 3585-A], the IC50 in assay [1] (setting [2]) was over 74.3 nM; at Human PD-L1/PD-1 (setting [3]), over 30.5 nM.

As to `CCCC[C@H]1C(=O)N(C)CC(=O)N[C@@H](CC(=O)O)C(=O)N[C@@H](C(C)C)C(=O)N(C)[C@@H](Cc2ccccc2)C(=O)N[C@@H](Cc2ccc(O)cc2)C(=O)N(C)CC(=O)N[C@@H](Cc2c[nH]c3ccccc23)C(=O)N[C@@H](Cc2ccc(O)cc2)C(=O)N[C@@H](CC(C)C)C(=O)N[C@H](C(=O)NCC(N)=O)CSCC(=O)N[C@@H](Cc2ccccc2)C(=O)N(C)[C@@H](Cc2cccc3ccccc23)C(=O)N1C` (single isomer, unassigned) [Example 3585-B], the IC50 in assay [1] (setting [2]) lay in the range of 4.78 to 72.9 nM; at Human PD-L1/PD-1 (setting [3]), 6.76 to 30.3 nM.

On to `CCCC[C@H]1C(=O)N(C)CC(=O)N[C@@H](CC(=O)O)C(=O)N[C@@H](C(C)C)C(=O)N(C)[C@@H](Cc2ccccc2)C(=O)N[C@@H](Cc2ccc(O)cc2)C(=O)N(C)CC(=O)N[C@@H](C)C(=O)N[C@@H](Cc2ccc(O)cc2)C(=O)N[C@@H](CC(C)C)C(=O)N[C@@H](C(=O)NCC(N)=O)CSCC(=O)N[C@@H](Cc2ccccc2)C(=O)N(C)[C@@H](Cc2ccccc2)C(=O)N1C` [Example 1001] (HELM PEPTIDE1{[O=C(C[*:3])[*:2]].F.[meF].[CCCC[C@@H](C(=O)[*:2])N(C)[*:1]].[Sar].D.V.[meF].Y.[Sar].A.Y.L.[dC].G.[am]}$PEPTIDE1,PEPTIDE1,1:R3-14:R3$$$V2.0), for which the IC50 in assay [1] (setting [4]) is over 74.3 nM; on Human PD-L1/PD-1 (setting [3]) it was over 30.5 nM.

Regarding `CCCC[C@H]1C(=O)N(C)[C@@H](CCCC)C(=O)N[C@@H](CCCNC(=N)N)C(=O)N[C@@H](C(=O)NCC(N)=O)CSCC(=O)N[C@@H](Cc2ccccc2)C(=O)N(C)[C@@H](C)C(=O)N[C@@H](CC(N)=O)C(=O)N2CCC[C@H]2C(=O)N[C@@H](Cc2cnc[nH]2)C(=O)N[C@@H](CC(C)C)C(=O)N(C)CC(=O)N[C@@H](Cc2c[nH]c3ccccc23)C(=O)N[C@@H](CO)C(=O)N[C@@H](Cc2cccc3ccccc23)C(=O)N1C` [Example 1002] ({CH2CO}-F[NMeA]NPHL[Sar]WS[1Nal][NMeNle][NMeNle]R[dC]G-NH2; thioether N-14), the IC50 lay in the range of 4.78 to 72.9 nM in assay [1] (setting [4]) and 6.76 to 30.3 nM on Human PD-L1/PD-1 (setting [3]).

With `CCCC[C@H]1C(=O)N(C)[C@@H](Cc2ccccc2)C(=O)N[C@@H](CCCNC(=N)N)C(=O)N[C@H](C(=O)NCC(N)=O)CSCC(=O)N[C@@H](Cc2ccccc2)C(=O)N(C)[C@@H](C)C(=O)N[C@@H](CC(N)=O)C(=O)N2CCC[C@H]2C(=O)N[C@@H](Cc2cnc[nH]2)C(=O)N[C@@H](CC(C)C)C(=O)N(C)CC(=O)N[C@@H](Cc2c[nH]c3ccccc23)C(=O)N[C@@H](CO)C(=O)N[C@@H](Cc2c[nH]c3ccccc23)C(=O)N1C` [Example 1003] (HELM PEPTIDE1{[O=C(C[*:3])[*:2]].F.[meA].N.P.H.L.[Sar].W.S.W.[CCCC[C@@H](C(=O)[*:2])N(C)[*:1]].[meF].R.C.G.[am]}$PEPTIDE1,PEPTIDE1,1:R3-15:R3$$$V2.0), the IC50 in assay [1] (setting [4]) is over 74.3 nM; at Human PD-L1/PD-1 (setting [3]), over 30.5 nM.

Consider `CCCC[C@H]1C(=O)N(C)[C@@H](CCCC)C(=O)N[C@@H](CCCNC(=N)N)C(=O)N[C@H](C(=O)NCC(N)=O)CSCC(=O)N[C@@H](Cc2ccccc2)C(=O)N(C)[C@@H](C)C(=O)N[C@@H](CC(N)=O)C(=O)N2CCC[C@H]2C(=O)N[C@@H](Cc2c[nH]cn2)C(=O)N[C@@H](CC(C)C)C(=O)N(C)CC(=O)N[C@@H](Cc2c[nH]c3ccccc23)C(=O)N[C@@H](CO)C(=O)N[C@@H](Cc2c[nH]cn2)C(=O)N1C` [Example 1004] ({CH2CO}-F[NMeA]NPHL[Sar]WSH[NMeNle][NMeNle]RCG-NH2; thioether N-14), for which the figures for the 50% inhibitory concentration (IC50) (in assay [1] (setting [4]); on Human PD-L1/PD-1 (setting [3])) were over 74.3 nM and over 30.5 nM, respectively.

As for `CCCC[C@H]1C(=O)N[C@@H](CCCNC(=N)N)C(=O)N[C@H](C(=O)NCC(N)=O)CSCC(=O)N[C@@H](Cc2ccccc2)C(=O)N(C)[C@@H](C)C(=O)N[C@@H](CC(N)=O)C(=O)N2CCC[C@H]2C(=O)N[C@@H](Cc2cnc[nH]2)C(=O)N[C@@H](CC(C)C)C(=O)N(C)CC(=O)N[C@@H](Cc2c[nH]c3ccccc23)C(=O)N[C@@H](CO)C(=O)N[C@@H](Cc2c[nH]c3ccccc23)C(=O)N2CCC[C@H]2C(=O)N1C` [Example 1005] (HELM PEPTIDE1{[O=C(C[*:3])[*:2]].F.[meA].N.P.H.L.[Sar].W.S.W.P.[CCCC[C@@H](C(=O)[*:2])N(C)[*:1]].R.C.G.[am]}$PEPTIDE1,PEPTIDE1,1:R3-15:R3$$$V2.0), the 50% inhibitory concentration (IC50) was over 74.3 nM in assay [1] (setting [4]) and over 30.5 nM at Human PD-L1/PD-1 (setting [3]).

`CCCC[C@H]1C(=O)N[C@@H](CCCNC(=N)N)C(=O)N[C@H](C(=O)NCC(N)=O)CSCC(=O)N[C@@H](Cc2ccccc2)C(=O)N(C)[C@@H](C)C(=O)N[C@@H](CC(N)=O)C(=O)N2CCC[C@H]2C(=O)N[C@@H](Cc2cnc[nH]2)C(=O)N[C@@H](CC(C)C)C(=O)N(C)CC(=O)N[C@@H](Cc2c[nH]c3ccccc23)C(=O)N[C@@H](CO)C(=O)N[C@@H](Cc2c[nH]c3ccccc23)C(=O)N[C@@H](CCc2ccccc2)C(=O)N1C` [Example 1006] ({CH2CO}-F[NMeA]NPHL[Sar]WSW[hPhe][NMeNle]RCG-NH2; thioether N-14): the IC50 in assay [1] (setting [4]) was over 74.3 nM; on Human PD-L1/PD-1 (setting [3]), over 30.5 nM.

In the case of `CCCC[C@H]1C(=O)N(C)[C@@H](CCCC)C(=O)N[C@@H](CCCN)C(=O)N[C@H](C(=O)NCC(N)=O)CSCC(=O)N[C@@H](Cc2ccc(O)cc2)C(=O)N2CCC[C@H]2C(=O)N[C@@H](CC(N)=O)C(=O)N2CCC[C@H]2C(=O)N[C@@H](Cc2cnc[nH]2)C(=O)N[C@@H](CC(C)C)C(=O)N2C[C@H](O)C[C@H]2C(=O)N[C@@H](Cc2c[nH]c3ccccc23)C(=O)N[C@@H](CO)C(=O)N[C@@H](Cc2c[nH]c3ccccc23)C(=O)N1C` [Example 1173] ({CH2CO}-YPNPHL[Hyp]WSW[NMeNle][NMeNle][Orn]CG-NH2; thioether N-14), on Human PD-L1/PD-1 (read-out: HTRF IC50 value), the IC50 was 2.71 nM.

Turning to `CCCC[C@H]1C(=O)N(C)CC(=O)N[C@@H](CC(=O)O)C(=O)N[C@@H](C(C)C)C(=O)N(C)[C@@H](Cc2ccccc2)C(=O)N[C@@H](Cc2ccc(O)cc2)C(=O)N(C)CC(=O)N[C@@H](Cc2c[nH]c3ccccc23)C(=O)N[C@@H](Cc2ccc(O)cc2)C(=O)N[C@@H](CC(C)C)C(=O)N[C@H](C(=O)NCC(N)=O)CSCC(=O)N[C@@H](Cc2ccccc2)C(=O)N(C)[C@@H](Cc2cnc[nH]2)C(=O)N1C` [Example 3056-B] (HELM PEPTIDE1{[O=C(C[*:3])[*:2]].F.[meH].[CCCC[C@@H](C(=O)[*:2])N(C)[*:1]].[Sar].D.V.[meF].Y.[Sar].W.Y.L.C.G.[am]}$PEPTIDE1,PEPTIDE1,1:R3-14:R3$$$V2.0), on Human PD-L1/PD-1 (setting [3]), the IC50 was in the range of 6.76 to 30.3 nM.

For the compound `CCCC[C@H]1C(=O)N(C)CC(=O)N[C@@H](CC(=O)O)C(=O)N[C@@H](C(C)C)C(=O)N(C)[C@@H](Cc2ccccc2)C(=O)N[C@@H](Cc2ccc(O)cc2)C(=O)N2C[C@@H](O)C[C@@H]2C(=O)N[C@@H](Cc2c[nH]c3ccccc23)C(=O)N[C@@H](Cc2ccc(O)cc2)C(=O)N[C@@H](CC(C)C)C(=O)N[C@H](C(=O)NCC(N)=O)CSCC(=O)N[C@@H](Cc2ccccc2)C(=O)N(C)[C@@H](Cc2ccccc2)C(=O)N1C` [Example 3583] ({CH2CO}-F[NMeF][NMeNle][Sar]DV[NMeF]Y[dHyp]WYLCG-NH2; thioether N-13), the 50% inhibitory concentration (IC50) in assay [1] (setting [2]) lay within 0.158 to 4.71 nM.

For `CCCC[C@H]1C(=O)N[C@@H](CCCNC(=N)N)C(=O)NC(C(=O)NCC(N)=O)CSCC(=O)N[C@@H](Cc2ccc(O)cc2)C(=O)N(C)[C@@H](C)C(=O)N[C@@H](CC(N)=O)C(=O)N2CCC[C@H]2C(=O)N[C@@H](CN)C(=O)N[C@@H](CC(C)C)C(=O)N2CCC[C@H]2C(=O)N[C@@H](Cc2c[nH]c3ccccc23)C(=O)N[C@@H](CO)C(=O)N[C@@H](Cc2c[nH]c3ccccc23)C(=O)N(C)[C@@H](CCSC)C(=O)N1C` (stereo partly drawn) [Example 9097] ({CH2CO}-Y[NMeA]NP[Dap]LPWSW[NMeM][NMeNle]R[ξC]G-NH2; thioether N-14), in assay [1] (setting [2]), the IC50 lay in the range of 4.78 to 72.9 nM.

Regarding `CCCC[C@H]1C(=O)N(C)[C@@H](CCCC)C(=O)N[C@@H](CCC(=O)O)C(=O)N[C@H](C(=O)NCC(N)=O)CSCC(=O)N[C@@H](Cc2ccc(O)cc2)C(=O)N(C)[C@@H](C)C(=O)N[C@@H](CC(=O)O)C(=O)N2CCC[C@H]2C(=O)N[C@@H](Cc2c[nH]cn2)C(=O)N[C@@H](CCCCN)C(=O)N2C[C@@H](c3ccccc3)C[C@H]2C(=O)N[C@@H](Cc2c[nH]c3ccccc23)C(=O)N[C@@H](CCCCN)C(=O)N[C@@H](Cc2c[nH]c3ccccc23)C(=O)N1C` [Example 13006] ({CH2CO}-Y[NMeA]DPHK[Pro(cis-4-Ph)]WKW[NMeNle][NMeNle]ECG-NH2; thioether N-14), the half-maximal inhibitory concentration (IC50) in assay [1] (cell binding assay, cell line not given, value given instead of cluster, read-out: CBA IC50 value) was 1.46 nM.
